Measurements from ChEMBL document CHEMBL1201862, “PubChem BioAssay data set” (2004).
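48-hour exposure; five concentrations; linearly interpolated endpoints. At the GI50, growth is halved.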 The source made the active and inactive calls. No stated cut-off is given here; in the data, active = GI50 up to about 1.1 µM and inactive = higher.

Columns and labels:
Experiment in all cases: NCI anticancer screen, dose series, 48 h
A498 = test system: A498
CCRF-CEM = test system: CCRF-CEM
HCT-116 = test system: HCT-116
HOP-92 = test system: HOP-92
HT-29 = test system: HT-29
MOLT-4 = test system: MOLT-4
NCI-H460 = test system: NCI-H460
NCI-H522 = test system: NCI-H522
OVCAR-5 = test system: OVCAR-5
OVCAR-8 = test system: OVCAR-8
SK-MEL-28 = test system: SK-MEL-28
SN12C = test system: SN12C
SW-620 = test system: SW-620
U-251 = test system: U-251
UACC-62 = test system: UACC-62
UO-31 = test system: UO-31
MCF7 = test system: MCF7
MDA-N = test system: MDA-N

Measured: GI50

COc1cc(C(CC(OC)OC)=C(C#N)C#N)cc(OC)c1OC
inactive: A498 8.13 µM | CCRF-CEM 5.36 µM | HCT-116 18.2 µM | HOP-92 17.1 µM | HT-29 5.6 µM | MOLT-4 7.26 µM | NCI-H460 6.52 µM | NCI-H522 13.9 µM | OVCAR-5 > 100 µM | OVCAR-8 20 µM | SK-MEL-28 36.3 µM | SN12C 29.2 µM | SW-620 29.7 µM | U-251 13.3 µM | UACC-62 26.7 µM | UO-31 28.1 µM

O=C(OCCN=c1c2ccccc2ccc2ccccc12)c1ccccc1
inactive: CCRF-CEM 40.8 µM | HCT-116 42.2 µM | HOP-92 75 µM | HT-29 64 µM | MCF7 > 100 µM | MDA-N > 100 µM | MOLT-4 > 100 µM | NCI-H460 63.2 µM | OVCAR-5 > 100 µM | OVCAR-8 78.7 µM | SK-MEL-28 > 100 µM | SN12C 64.1 µM | SW-620 74 µM | U-251 56.4 µM | UACC-62 75 µM | UO-31 56 µM

O=C(Nc1ccccc1-c1nc2ccccc2[nH]c1=O)c1ccccc1
inactive: A498 20.4 µM | CCRF-CEM > 100 µM | HCT-116 20.1 µM | HOP-92 21.4 µM | HT-29 37.3 µM | MOLT-4 > 100 µM | NCI-H460 21.5 µM | NCI-H522 14.8 µM | OVCAR-5 63.4 µM | OVCAR-8 22.9 µM | SK-MEL-28 43.5 µM | SN12C 27.3 µM | SW-620 27.9 µM | U-251 23.3 µM | UACC-62 26.1 µM | UO-31 19.6 µM

O=c1[nH]nc(Nc2ccccc2)c2nnn(C3CCCCC3)c12
inactive: CCRF-CEM > 100 µM | HCT-116 > 100 µM | HOP-92 > 100 µM | HT-29 > 100 µM | MCF7 > 100 µM | MDA-N > 100 µM | MOLT-4 > 100 µM | NCI-H460 > 100 µM | OVCAR-5 > 100 µM | OVCAR-8 > 100 µM | SK-MEL-28 > 100 µM | SN12C > 100 µM | U-251 > 100 µM | UO-31 > 100 µM

Cc1c(O)c(=O)ccn1C1OC(CO)C(O)C1O (stereo not drawn)
inactive: A498 > 100 µM | CCRF-CEM 39.5 µM | HCT-116 62.1 µM | HOP-92 > 100 µM | HT-29 > 100 µM | MOLT-4 67.1 µM | NCI-H460 59.4 µM | NCI-H522 > 100 µM | OVCAR-5 > 100 µM | OVCAR-8 > 100 µM | SK-MEL-28 > 100 µM | SN12C > 100 µM | SW-620 > 100 µM | U-251 > 100 µM | UACC-62 96.2 µM | UO-31 > 100 µM
